ChEMBL document CHEMBL5625172, “Synthesis and evaluation of dihydrofuro[2,3-b]pyridine derivatives as potent IRAK4 inhibitors” (Eur J Med Chem, 2023)
Activity calls are given as the source filed them. No cut-off for these calls is given here.

Experiments:
[1] = molecular target: T1, Interleukin-1 receptor-associated kinase 4 (Homo sapiens, UniProt Q9NWZ3); experiment: Inhibition of IRAK4 (unknown origin) using FAM-labeled peptide as substrate incubated for 10 mins in presence of ATP by mobility shift assay
T1 sequence (Q9NWZ3 whole entry): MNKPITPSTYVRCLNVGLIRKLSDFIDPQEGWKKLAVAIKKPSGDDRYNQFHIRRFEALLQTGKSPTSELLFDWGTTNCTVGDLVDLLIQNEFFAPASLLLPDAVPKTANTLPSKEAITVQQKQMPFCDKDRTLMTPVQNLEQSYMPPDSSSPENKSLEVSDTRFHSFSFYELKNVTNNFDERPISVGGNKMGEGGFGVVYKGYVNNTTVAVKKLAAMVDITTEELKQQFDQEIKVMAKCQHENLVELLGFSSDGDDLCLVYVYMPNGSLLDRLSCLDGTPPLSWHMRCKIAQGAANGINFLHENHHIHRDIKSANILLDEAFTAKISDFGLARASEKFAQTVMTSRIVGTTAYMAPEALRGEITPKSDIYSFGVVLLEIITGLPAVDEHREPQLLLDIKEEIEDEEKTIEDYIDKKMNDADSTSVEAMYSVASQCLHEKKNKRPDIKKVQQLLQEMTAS

[2] = Oral bioavailability in Sprague-Dawley rat at 5 to 10 mg/kg measured after 0.25 to 24 hrs by LC-MS analysis; format: ADME, organism-based; settings: in vivo, dose lower 5 mg/kg, time lower 0.25 hrs, dose upper 10 mg/kg, time upper 24 hrs
[3] = Clearance in Sprague-Dawley rat at 2 mg/kg, iv measured after 5 mins to 24 hrs by LC-MS analysis; format: ADME, organism-based; settings: in vivo, time 5-1440 min
MEF = experiment: Cytotoxicity against MEF cells at 3 uM; format: toxicity, cell-based; settings: mouse
[4] = Plasma protein binding in CD-1 mouse by LC-MS analysis; format: ADME, cell-free; settings: read-out: PPB (converted)
[5] = Inhibition of CDK2/cyclinA (unknown origin) by scintillation proximity assay; parameters: species or system Homo sapiens
[6] = molecular target: Mitogen-activated protein kinase kinase kinase 5 (Homo sapiens, UniProt Q99683); experiment: Inhibition of ASK1 (unknown origin) by scintillation proximity assay
[7] = molecular target: Dual specificity tyrosine-phosphorylation-regulated kinase 1A (Homo sapiens, UniProt Q13627); experiment: Inhibition of DYRK1A (unknown origin) by scintillation proximity assay
[8] = molecular target: Serine/threonine-protein kinase 38 (Homo sapiens, UniProt Q15208); experiment: Inhibition of NDR1 (unknown origin) by scintillation proximity assay
[9] = molecular target: Interleukin-1 receptor-associated kinase 1 (Homo sapiens, UniProt P51617); experiment: Binding affinity to IRAK1 (unknown origin) by kinomescan competition binding assay
[10] = molecular target: MAP kinase-activated protein kinase 2 (Homo sapiens, UniProt P49137); experiment: Inhibition of MAPKAP-K2 (unknown origin) by scintillation proximity assay
[11] = Cytotoxicity against Splenocytes (unknown origin) at 3 uM; format: toxicity, cell-based; settings: splenocyte
[12] = molecular target: Serine/threonine-protein kinase B-raf (Homo sapiens, UniProt P15056); experiment: Inhibition of B-Raf (unknown origin) by scintillation proximity assay
[13] = Inhibition of LPS-induced TNFalpha protein expression in immortalized mouse BMDM cells preincubated for 2 hrs followed by LPS stimulation and measured after 16 hrs by ELISA; format: functional, cell-based
[14] = molecular target: Serine/threonine-protein kinase PAK 1 (Homo sapiens, UniProt Q13153); experiment: Inhibition of PAK1 (unknown origin) by scintillation proximity assay
CDK4/Cyclin D3 = CDK4/Cyclin D3 (Homo sapiens, UniProt P11802); experiment: Inhibition of CDK4/cyclinD3 (unknown origin) by scintillation proximity assay; format: protein-complex assay
[15] = molecular target: Tyrosine-protein kinase JAK1 (Homo sapiens, UniProt P23458); experiment: Inhibition of JAK1 (unknown origin) by scintillation proximity assay
[16] = Inhibition of LPS-induced IL-6 mRNA expression in immortalized mouse BMDM cells preincubated for 2 hrs followed by LPS stimulation and measured after 16 hrs by qPCR analysis; format: functional, cell-based
[17] = molecular target: Calcium/calmodulin-dependent protein kinase type 1 (Homo sapiens, UniProt Q14012); experiment: Inhibition of CaMKI (unknown origin) by scintillation proximity assay
[18] = molecular target: Receptor-type tyrosine-protein kinase FLT3 (Homo sapiens, UniProt P36888); experiment: Inhibition of FLT3 (unknown origin) by scintillation proximity assay
[19] = molecular target: Dual specificity protein kinase CLK1 (Homo sapiens, UniProt P49759); experiment: Inhibition of CLK1 (unknown origin) by scintillation proximity assay
[20] = molecular target: Receptor-interacting serine/threonine-protein kinase 1 (Homo sapiens, UniProt Q13546); experiment: Inhibition of RIPK1 (unknown origin) by scintillation proximity assay
[21] = Plasma protein binding in human by LC-MS analysis; format: ADME, cell-free; settings: read-out: PPB
BMDM = experiment: Cytotoxicity against immortalized mouse BMDM cells at 3 uM; format: toxicity, cell-based
[22] = molecular target: Epidermal growth factor receptor (Homo sapiens, UniProt P00533); experiment: Inhibition of EGFR (unknown origin) by scintillation proximity assay
[23] = Clearance in Sprague-Dawley rat assessed as liver blood flow at 2 mg/kg, iv measured after 5 mins to 24 hrs by LC-MS analysis; format: ADME, organism-based; settings: in vivo, time 5-1440 min
[24] = molecular target: cAMP-dependent protein kinase catalytic subunit beta (Homo sapiens, UniProt P22694); experiment: Inhibition of PKA-C beta (unknown origin) by scintillation proximity assay
[25] = molecular target: Homeodomain-interacting protein kinase 1 (Homo sapiens, UniProt Q86Z02); experiment: Inhibition of HIPK1 (unknown origin) by scintillation proximity assay
[26] = Inhibition of LPS-induced TNFalpha mRNA expression in immortalized mouse BMDM cells preincubated for 2 hrs followed by LPS stimulation and measured after 16 hrs by qPCR analysis; format: functional, cell-based
[27] = molecular target: Tyrosine-protein kinase BTK (Homo sapiens, UniProt Q06187); experiment: Inhibition of BTK (unknown origin) by scintillation proximity assay
[28] = molecular target: Receptor-interacting serine/threonine-protein kinase 2 (Homo sapiens, UniProt O43353); experiment: Inhibition of RIPK2 (unknown origin) by scintillation proximity assay
[29] = Plasma protein binding in Sprague-Dawley rat by LC-MS analysis; format: ADME, cell-free; settings: read-out: PPB (converted)
[30] = Inhibition of LPS-induced IL-6 mRNA expression in human PBMC cells preincubated for 2 hrs followed by LPS stimulation and measured after 16 hrs by qPCR analysis; format: functional, cell-based
[31] = molecular target: Serine/threonine-protein kinase 17A (Homo sapiens, UniProt Q9UEE5); experiment: Inhibition of DRAK1 (unknown origin) by scintillation proximity assay
[32] = Inhibition of LPS-induced TNFalpha protein expression in human PBMC cells preincubated for 2 hrs followed by LPS stimulation and measured after 16 hrs by ELISA; format: functional, cell-based
[33] = molecular target: Serine/threonine-protein kinase MRCK alpha (Homo sapiens, UniProt Q5VT25); experiment: Inhibition of MRCKa (unknown origin) by scintillation proximity assay
Mus musculus = experiment: In vivo inhibition of LPS-induced TNF-alpha protein level in C57BL/6 mouse assessed as reduction in TNF-alpha level in serum at 50 to 100 mg/kg, po administered for 1 hr followed by LPS stimulation and measured after 3 hrs by ELISA; format: functional, organism-based; settings: dose 50-100 mg/kg, time 4.0 hrs
[34] = Inhibition of LPS-induced IL-6 protein expression in immortalized mouse BMDM cells preincubated for 2 hrs followed by LPS stimulation and measured after 16 hrs by ELISA; format: functional, cell-based

Chain of Serine/threonine-protein kinase B-raf (P15056 whole entry): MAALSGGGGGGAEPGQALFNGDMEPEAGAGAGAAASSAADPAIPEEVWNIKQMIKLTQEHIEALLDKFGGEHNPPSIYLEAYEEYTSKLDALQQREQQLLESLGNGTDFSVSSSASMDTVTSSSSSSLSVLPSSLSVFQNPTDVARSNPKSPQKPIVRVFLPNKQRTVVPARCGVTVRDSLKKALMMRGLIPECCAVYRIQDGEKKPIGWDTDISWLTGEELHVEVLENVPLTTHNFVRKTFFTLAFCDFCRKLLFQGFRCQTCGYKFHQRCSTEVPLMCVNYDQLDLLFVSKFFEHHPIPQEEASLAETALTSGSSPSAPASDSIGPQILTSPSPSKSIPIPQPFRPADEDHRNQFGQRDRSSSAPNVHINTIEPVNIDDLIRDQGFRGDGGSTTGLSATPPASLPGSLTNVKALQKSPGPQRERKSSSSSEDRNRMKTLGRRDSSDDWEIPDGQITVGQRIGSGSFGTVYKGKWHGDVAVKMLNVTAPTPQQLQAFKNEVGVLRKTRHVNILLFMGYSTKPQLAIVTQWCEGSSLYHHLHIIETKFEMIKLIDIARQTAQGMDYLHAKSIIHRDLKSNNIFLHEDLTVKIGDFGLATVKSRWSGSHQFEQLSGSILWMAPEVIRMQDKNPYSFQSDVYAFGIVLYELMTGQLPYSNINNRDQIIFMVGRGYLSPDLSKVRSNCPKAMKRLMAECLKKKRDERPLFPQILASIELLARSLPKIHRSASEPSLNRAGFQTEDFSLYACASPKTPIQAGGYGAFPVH
Chain of Serine/threonine-protein kinase MRCK alpha (Q5VT25 whole entry): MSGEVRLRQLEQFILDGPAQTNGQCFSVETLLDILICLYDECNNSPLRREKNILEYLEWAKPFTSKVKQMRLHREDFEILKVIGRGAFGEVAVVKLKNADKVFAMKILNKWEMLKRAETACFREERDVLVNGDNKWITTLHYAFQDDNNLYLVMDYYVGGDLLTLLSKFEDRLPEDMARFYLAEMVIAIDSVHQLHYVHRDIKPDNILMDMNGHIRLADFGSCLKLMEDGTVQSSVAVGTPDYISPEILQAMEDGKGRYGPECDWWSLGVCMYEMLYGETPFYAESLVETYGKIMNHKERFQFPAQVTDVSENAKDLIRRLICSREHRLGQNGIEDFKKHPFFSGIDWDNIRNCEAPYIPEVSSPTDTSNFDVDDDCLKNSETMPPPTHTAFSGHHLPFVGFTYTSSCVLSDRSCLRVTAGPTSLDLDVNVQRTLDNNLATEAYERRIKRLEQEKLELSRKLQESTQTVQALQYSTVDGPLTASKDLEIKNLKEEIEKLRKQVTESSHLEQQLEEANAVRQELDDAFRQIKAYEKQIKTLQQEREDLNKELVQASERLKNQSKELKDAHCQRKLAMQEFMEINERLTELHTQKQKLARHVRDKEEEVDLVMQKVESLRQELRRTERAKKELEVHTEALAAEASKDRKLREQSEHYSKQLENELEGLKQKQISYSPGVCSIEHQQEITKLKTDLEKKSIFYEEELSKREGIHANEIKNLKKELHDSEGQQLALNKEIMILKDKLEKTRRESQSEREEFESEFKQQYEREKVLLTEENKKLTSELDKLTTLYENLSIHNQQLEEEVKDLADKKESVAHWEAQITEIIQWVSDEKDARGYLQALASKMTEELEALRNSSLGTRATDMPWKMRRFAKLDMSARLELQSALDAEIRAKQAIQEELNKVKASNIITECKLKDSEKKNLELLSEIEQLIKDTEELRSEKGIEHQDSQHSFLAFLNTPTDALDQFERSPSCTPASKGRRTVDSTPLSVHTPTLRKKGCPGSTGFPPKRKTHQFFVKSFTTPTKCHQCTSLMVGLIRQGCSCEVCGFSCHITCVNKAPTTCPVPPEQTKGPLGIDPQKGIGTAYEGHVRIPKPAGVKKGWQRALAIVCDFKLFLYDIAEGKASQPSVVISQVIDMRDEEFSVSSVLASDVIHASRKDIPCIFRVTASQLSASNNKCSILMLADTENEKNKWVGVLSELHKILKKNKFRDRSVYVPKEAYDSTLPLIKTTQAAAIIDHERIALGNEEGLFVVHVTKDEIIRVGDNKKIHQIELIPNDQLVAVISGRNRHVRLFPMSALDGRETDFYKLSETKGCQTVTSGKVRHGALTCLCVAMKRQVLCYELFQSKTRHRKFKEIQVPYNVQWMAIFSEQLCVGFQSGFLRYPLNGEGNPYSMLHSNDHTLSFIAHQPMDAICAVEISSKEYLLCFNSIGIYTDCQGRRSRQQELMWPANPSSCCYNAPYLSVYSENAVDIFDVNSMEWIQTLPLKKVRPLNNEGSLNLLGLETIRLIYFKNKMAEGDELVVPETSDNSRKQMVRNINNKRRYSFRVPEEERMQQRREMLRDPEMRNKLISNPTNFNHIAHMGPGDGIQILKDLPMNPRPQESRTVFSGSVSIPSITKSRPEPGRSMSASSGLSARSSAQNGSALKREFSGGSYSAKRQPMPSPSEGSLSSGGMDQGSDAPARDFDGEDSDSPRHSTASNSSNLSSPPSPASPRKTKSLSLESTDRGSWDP
Chain of Epidermal growth factor receptor (P00533 whole entry): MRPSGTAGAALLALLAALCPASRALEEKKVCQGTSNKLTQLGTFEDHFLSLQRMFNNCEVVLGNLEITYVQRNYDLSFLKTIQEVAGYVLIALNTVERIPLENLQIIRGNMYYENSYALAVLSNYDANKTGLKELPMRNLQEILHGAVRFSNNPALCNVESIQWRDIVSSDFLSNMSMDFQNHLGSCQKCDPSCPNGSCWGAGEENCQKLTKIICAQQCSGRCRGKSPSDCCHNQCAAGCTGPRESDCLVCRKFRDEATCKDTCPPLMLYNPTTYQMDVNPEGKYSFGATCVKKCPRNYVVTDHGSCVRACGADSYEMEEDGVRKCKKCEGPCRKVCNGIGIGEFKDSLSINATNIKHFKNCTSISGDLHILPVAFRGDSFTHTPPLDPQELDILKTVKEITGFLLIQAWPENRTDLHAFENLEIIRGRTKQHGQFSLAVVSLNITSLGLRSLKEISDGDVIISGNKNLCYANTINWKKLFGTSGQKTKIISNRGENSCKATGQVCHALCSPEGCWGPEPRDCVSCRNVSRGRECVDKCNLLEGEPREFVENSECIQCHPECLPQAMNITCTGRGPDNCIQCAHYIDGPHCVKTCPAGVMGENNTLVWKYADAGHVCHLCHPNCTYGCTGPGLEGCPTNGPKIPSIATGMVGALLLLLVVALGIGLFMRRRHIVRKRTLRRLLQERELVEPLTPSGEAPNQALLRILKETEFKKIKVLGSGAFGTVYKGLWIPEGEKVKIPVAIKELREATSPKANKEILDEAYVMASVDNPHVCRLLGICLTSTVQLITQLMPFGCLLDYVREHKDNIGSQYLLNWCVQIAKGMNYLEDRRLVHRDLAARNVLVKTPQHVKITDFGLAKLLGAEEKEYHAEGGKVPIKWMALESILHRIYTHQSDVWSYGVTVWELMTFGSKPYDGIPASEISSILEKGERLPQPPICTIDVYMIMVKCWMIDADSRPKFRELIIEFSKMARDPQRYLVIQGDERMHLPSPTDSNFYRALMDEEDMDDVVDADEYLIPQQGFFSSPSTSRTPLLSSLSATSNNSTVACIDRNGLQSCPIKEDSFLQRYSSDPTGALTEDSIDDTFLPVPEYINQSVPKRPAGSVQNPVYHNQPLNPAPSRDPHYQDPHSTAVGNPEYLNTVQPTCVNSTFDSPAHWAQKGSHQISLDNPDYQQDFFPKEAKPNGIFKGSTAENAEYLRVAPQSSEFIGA
Chain of Receptor-interacting serine/threonine-protein kinase 2 (O43353 whole entry): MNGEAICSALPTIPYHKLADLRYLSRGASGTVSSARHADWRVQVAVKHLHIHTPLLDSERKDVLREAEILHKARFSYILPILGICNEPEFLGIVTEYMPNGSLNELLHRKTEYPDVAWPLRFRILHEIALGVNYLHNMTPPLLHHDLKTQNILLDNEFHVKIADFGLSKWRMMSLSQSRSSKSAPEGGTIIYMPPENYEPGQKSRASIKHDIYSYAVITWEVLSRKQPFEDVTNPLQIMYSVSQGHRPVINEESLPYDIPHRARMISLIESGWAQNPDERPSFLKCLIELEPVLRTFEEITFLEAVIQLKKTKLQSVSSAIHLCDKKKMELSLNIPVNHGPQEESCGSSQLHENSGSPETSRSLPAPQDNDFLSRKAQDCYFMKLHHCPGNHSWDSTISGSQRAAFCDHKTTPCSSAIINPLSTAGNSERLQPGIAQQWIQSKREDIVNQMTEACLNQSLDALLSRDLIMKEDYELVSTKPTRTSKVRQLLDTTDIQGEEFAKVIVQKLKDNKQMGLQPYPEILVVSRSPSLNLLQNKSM
Chain of Serine/threonine-protein kinase 38 (Q15208 whole entry): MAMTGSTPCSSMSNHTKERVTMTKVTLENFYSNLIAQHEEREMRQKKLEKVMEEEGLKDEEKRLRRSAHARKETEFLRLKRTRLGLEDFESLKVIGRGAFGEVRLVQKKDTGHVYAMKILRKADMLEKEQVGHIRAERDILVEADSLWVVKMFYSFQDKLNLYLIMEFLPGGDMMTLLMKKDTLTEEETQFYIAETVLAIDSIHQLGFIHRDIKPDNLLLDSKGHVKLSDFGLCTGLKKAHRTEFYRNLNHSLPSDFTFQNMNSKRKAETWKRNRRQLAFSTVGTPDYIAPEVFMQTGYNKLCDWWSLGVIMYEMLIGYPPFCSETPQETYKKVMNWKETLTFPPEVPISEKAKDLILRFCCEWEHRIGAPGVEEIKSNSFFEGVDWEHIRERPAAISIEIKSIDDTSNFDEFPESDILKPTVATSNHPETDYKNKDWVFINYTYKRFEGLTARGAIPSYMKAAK
Chain of Calcium/calmodulin-dependent protein kinase type 1 (Q14012 whole entry): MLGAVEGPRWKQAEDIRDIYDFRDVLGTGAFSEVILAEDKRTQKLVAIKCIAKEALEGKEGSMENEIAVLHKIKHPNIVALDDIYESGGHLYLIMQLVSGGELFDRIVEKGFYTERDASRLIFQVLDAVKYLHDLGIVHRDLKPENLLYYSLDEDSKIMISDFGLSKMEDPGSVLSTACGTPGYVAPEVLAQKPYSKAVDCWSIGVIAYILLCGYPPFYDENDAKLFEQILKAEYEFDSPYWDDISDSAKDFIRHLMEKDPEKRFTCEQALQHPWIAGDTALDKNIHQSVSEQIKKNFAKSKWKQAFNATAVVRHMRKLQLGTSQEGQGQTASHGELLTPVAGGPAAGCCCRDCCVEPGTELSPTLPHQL

Structure (SMILES): CCOc1nc2c(cc1C(=O)Nc1cccc(-c3ccn(C)n3)n1)CC(C)(C)O2
- IC50 [1]: 1370 nM

Structure (SMILES): CNCCOc1nc2c(cc1C(=O)Nc1cccc(-c3cnn(C)c3)n1)CC(C)(C)O2
- IC50 [1]: 111 nM

Structure (SMILES): Cn1cc(-c2cccc(NC(=O)c3cc4c(nc3OC3CC3)OC(C)(C)C4)n2)cn1
- bioavailability [2]: 1.6%
- clearance [3]: 43 mL/min/kg

Structure (SMILES): Cn1cc(-c2cccc(NC(=O)c3cc4c(nc3OC3CCCC3)OC(C)(C)C4)n2)cn1
- IC50 [1]: 5.7 nM

Structure (SMILES): CCOc1nc2c(cc1C(=O)Nc1cccc(-c3cnn(C)c3)n1)CC(C)(C)O2
- bioavailability [2]: 3.6%
- clearance [3]: 43 mL/min/kg

Structure (SMILES): CCOc1nc2c(cc1C(=O)Nc1cccc(-c3ccnn3C)n1)CC(C)(C)O2
- IC50 [1]: 75 nM

Structure (SMILES): CCOc1nc2c(cc1C(=O)Nc1cnn3cccnc13)CC(C)(C)O2
- IC50 [1]: 96 nM

Structure (SMILES): CCOc1nc2c(cc1C(=O)Nc1cccc(C)n1)CC(C)(C)O2
- IC50 [1]: 112 nM

Structure (SMILES): Cn1cc(-c2cccc(NC(=O)c3cc4c(nc3O[C@@H]3CCOC3)OC(C)(C)C4)n2)cn1
- bioavailability [2]: 6.2%
- clearance [3]: 31 mL/min/kg

Structure (SMILES): CCOc1nc2c(cc1C(=O)Nc1cccc(C(F)F)n1)CC(C)(C)O2
- IC50 [1]: 48 nM

Structure (SMILES): Cn1cc(-c2cccc(NC(=O)c3cc4c(nc3OC3CCNC3)OC(C)(C)C4)n2)cn1 (stereo unspecified)
- IC50 [1]: 379 nM

Structure (SMILES): CCOc1nc2c(cc1C(=O)Nc1cnn(C)c1)CC(C)(C)O2
- IC50 [1]: > 6000 nM

Structure (SMILES): Cn1cc(-c2cccc(NC(=O)c3cc4c(nc3OC3CCC3)OC(C)(C)C4)n2)cn1
- IC50 [1]: 6 nM
- bioavailability [2]: 3.1%
- clearance [3]: 41 mL/min/kg

Structure (SMILES): CCOc1nc2c(cc1C(=O)Nc1cccc(OC)n1)CC(C)(C)O2
- IC50 [1]: 87 nM

Structure (SMILES): CCOc1nc2c(cc1C(=O)Nc1cccc(C(F)(F)F)n1)CC(C)(C)O2
- IC50 [1]: 194 nM

Structure (SMILES): Cn1cc(-c2cccc(NC(=O)c3cc4c(nc3O[C@H]3C[C@H](O)C3)OC(C)(C)C4)n2)cn1
- bioavailability [2]: 11%
- clearance [3]: 18 mL/min/kg

Structure (SMILES): Cn1cc(-c2cccc(NC(=O)c3cc4c(nc3OC3COC3)OC(C)(C)C4)n2)cn1
- bioavailability [2]: 1.5%
- clearance [3]: 58 mL/min/kg

Structure (SMILES): Cn1cc(-c2cccc(NC(=O)c3cc4c(nc3O[C@H]3C[C@@H](O)C3)OC(C)(C)C4)n2)cn1
- Activity (MEF): Toxic
- fraction unbound [4]: 0.02
- IC50 [5]: 2990 nM
- IC50 [6]: > 30000 nM
- IC50 [7]: 34 nM
- IC50 [8]: 16500 nM
- Kd [9]: 13 nM
- IC50 [10]: > 30000 nM
- Activity [11]: Toxic
- IC50 [12]: 25700 nM
- IC50 [13]: 495 nM
- IC50 [14]: > 30000 nM
- bioavailability [2]: 21%
- IC50 (CDK4/Cyclin D3): > 30000 nM
- IC50 [15]: > 30000 nM
- IC50 [16]: 214 nM
- IC50 [17]: > 30000 nM
- IC50 [18]: 11 nM
- IC50 [19]: 9 nM
- IC50 [20]: 4690 nM
- fraction unbound [21]: 0.01
- Activity (BMDM): Toxic
- clearance [3]: 12 mL/min/kg
- IC50 [22]: > 30000 nM
- LBF [23]: < 30%
- IC50 [24]: > 30000 nM
- IC50 [25]: 26500 nM
- IC50 [26]: 1200 nM
- IC50 [27]: > 30000 nM
- IC50 [28]: 8350 nM
- fraction unbound [29]: 0.03
- IC50 [30]: 560 nM
- IC50 [31]: 788 nM
- IC50 [32]: 54.1 nM
- IC50 [33]: > 30000 nM
- inhibition (Mus musculus): Active
- IC50 [34]: 130 nM

Structure (SMILES): CN1CCC(Oc2nc3c(cc2C(=O)Nc2cccc(-c4cnn(C)c4)n2)CC(C)(C)O3)C1 (stereo unspecified)
- IC50 [1]: 74 nM

Structure (SMILES): COc1nc2c(cc1C(=O)Nc1cccc(-c3cnn(C)c3)n1)CC(C)(C)O2
- IC50 [1]: 51 nM

Structure (SMILES): CC(C)Oc1nc2c(cc1C(=O)Nc1cccc(-c3cnn(C)c3)n1)CC(C)(C)O2
- IC50 [1]: 5.8 nM
- bioavailability [2]: 7.5%
- clearance [3]: 44 mL/min/kg
